# Experimental data: patent US20130150399A1, “INHIBITORS OF THE UNFOLDED PROTEIN RESPONSE AND METHODS FOR THEIR USE” (The Board of Trustees of the Leland Stanford Junior …, priority 2006, published 2013)
# Key:
# HT1080 cells [1] = test: Clonogenic survival (colony formation) assay, HT1080; assay type: cell-based, human
# Method: Several of the candidate irestatins were tested in a hypoxia clonogenic survival assay. […] HT1080 fibrosarcoma cells stably were treated with 1 uM of the indicated irestatin or left untreated, and incubated in hypoxia (0.01% oxygen) for 48 hrs at 37° C. Cells were harvested and counted, and allowed to form colonies under normal oxygen tension. Survival rate is expressed as the fraction of colonies formed divided by the total number of cells seeded for each condition. For all experiments, cells were plated in triplicate, and all experiments were repeated at least three times. These experiments were repeated using MiaPaCa2 cells in place of the HT1080 fibrosarcoma cells.
# For hypoxia survival assays, cells were grown in 60 mm dishes until reaching at 50-70% confluence and shifted to hypoxia (0.1% O2) for 48 hrs. Cells were trypsinized, counted using a hemocytometer, and replated in triplicate at 1,000-20,000 cells per plate in normal culture medium. After 10-12 days of growth under normal oxygen conditions, colonies were stained with 0.2% crystal violet in ethanol and counted. Survival values are expressed as the number of colonies divided by the total number of cells seeded for each condition, normalized to the plating efficiency under normal oxygen conditions. At least three independent experiments were performed.
# A. Effect of irestatin 9389 on PERK and ATF6 pathways. HT1080 cells were treated with vehicle alone (lanes 1-4) or 2.5 μM irestatin 9389 (lanes 5-8) and cultured under aerobic conditions for 18 hours (N) or shifted to hypoxia for the indicated times. Protein lysates were analyzed by Western blot analysis using antisera specific for ATF6 (top), CHOP/GADD153 (middle) or actin (bottom). […] Cells were harvested, counted, and allowed to grow under normal culture conditions for 11-12 days. […] D. Quantification of clonogenic survival assay. […] F. Quantification of TUNEL-positive cells. […] Cells were harvested at the indicated times and counted by hemocytometer. Values represent the mean calculated from triplicate experiments+/−SEM.
# [2] = tested on: HT1080 s.c. tumor xenografts; assay type: in vivo
# Method: Female 4-6 week-old SCID (B6.CB 17) mice supplied by Stanford University Animal Facility were housed in the same facility (American Association of Laboratory Animal Care-approved) with 12 hour light cycles. Food and water were provided ad libitum. All experiments were approved by the institutional care and use committee. The potential toxicities of irestatin 9389 were examined in SCID mice injected i.p. once daily over 4 consecutive days with increasing doses of irestatin 9389 or vehicle control. […] For xenografts, 2×10^6 HT1080 fibrosarcoma cells were resuspended in 50-75 μl PBS and injected s.c. in the dorsal flanks of host mice. When the implanted tumors reached a mean volume of ˜150 mm^3, mice were randomly assigned into different treatment groups. Mice were dosed by i.p. bolus injection with either vehicle (50% DMSO, 20% cremophor EL, 30% ethanol) or irestatin 9389 (50 mg/kg). Tumors (6-8 per group) were measured every 2-4 days with calipers. Tumor volume was calculated using the formula [(W^2×L) 0.52] where W=width and L=length.
# A. Irestatin 9389 impairs IRE1α activity in implanted tumor xenografts. Equal numbers (2×10^6) of XBP-luciferase or CMV-luciferase reporter cells were implanted s.c. into SCID mice. After one week, mice were treated with irestatin 9389 (50 mg/kg), followed by optical bioluminescence imaging. B. Inhibition of tumor growth by irestatin 9389. HT1080 s.c. tumor xenografts were established in SCID mice and allowed to reach a mean volume of 150 mm^3 before treatment. Irestatin 9389 (50 mg/kg) or vehicle control was administered q 2d by i.p. injection and continued for 2 weeks, for a total of 6 doses. Tumor volumes were calculated based on caliper measurements taken every 3-5 days. Data points represent the mean volume calculated from at least 7 tumors per group, with SEM shown in one direction. Mean mouse weights+/−SEM are shown in bottom graph. C.
# Next, we tested if treatment with irestatin 9389 could have a direct impact on tumor growth. […]
# HT1080 cells [3] = test: TUNEL staining, HT1080 cells under hypoxia; assay type: cell-based, human; conditions: 2.5 μM; 48 hours of hypoxia
# Method: A. Effect of irestatin 9389 on PERK and ATF6 pathways. HT1080 cells were treated with vehicle alone (lanes 1-4) or 2.5 μM irestatin 9389 (lanes 5-8) and cultured under aerobic conditions for 18 hours (N) or shifted to hypoxia for the indicated times. Protein lysates were analyzed by Western blot analysis using antisera specific for ATF6 (top), CHOP/GADD153 (middle) or actin (bottom). Arrow indicates the cleaved, transcriptionally active form of ATF6. B. Cleavage of caspase-3 in irestatin-treated cells under hypoxia. HT1080 cells were cultured in normoxia (N) or under hypoxia for 36 hours (H 36) in absence or presence of irestatin 9389 (2.5 μM). Arrows indicate proteolytically cleaved caspase-3. C. Colony formation assay. HT1080 cells were treated as in B under normoxia (N) or hypoxia for 48 hours (H 48). Cells were harvested, counted, and allowed to grow under normal culture conditions for 11-12 days. Colonies were visualized with crystal violet staining. D. Quantification of clonogenic survival assay. Values represent the mean+/−SEM from at least 4 independent experiments. E. TUNEL staining of cells treated as in C. F. Quantification of TUNEL-positive cells. Values represent the mean+/− SEM from at least 3 experiments. […] Cells were harvested at the indicated times and counted by hemocytometer. Values represent the mean calculated from triplicate experiments+/−SEM. […]
structure (smiles),measurement,setting,value
Cc1csc(NC(=O)CSc2nc3c(c(C(F)(F)F)c2C#N)CCC3)n1 [Compound 9389],colony formation,"HT1080 cells [1]; 2.5 μM, hypoxia for 48 hours",strongly inhibited colony formation
same,survival of HT1080 cells (colony formation),"HT1080 cells [1]; 2.5 μM, normal oxygen conditions",negligible effect on the survival
same,decrease in the rate of colony formation,"HT1080 cells [1]; exposure during hours 40-48 of hypoxia, data not shown",8 fold
same,antitumor effects,"[2]; 50 mg/kg i.p. every other day, 6 doses",significant cytostatic antitumor effects
same,mean tumor volume,"[2]; 50 mg/kg i.p. every other day, 6 doses, one week after the last treatment, P<0.01",480+/−210 mm^3
same,weight loss compared to vehicle-treated mice,"[2]; mouse, in vivo",did not exhibit significant long-term weight loss
same,TUNEL-positive cells,HT1080 cells [3],35%
